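Growth conditions: 96-well plates. Treatment: test compound, 48 hours, 5 concentrations. Analysis: linear interpolation between bracketing concentrations; unreached endpoints set to highest concentration. GI50 = concentration required for 50% inhibition of growth. At the TGI there is no net growth.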
Assays:
Experiment in all cases: growth of human tumour cells (NCI), 48 h
MDA-MB-231 breast = tested on: MDA-MB-231 breast
COLO 205 colon = tested on: COLO 205 colon
HCT-116 colon = tested on: HCT-116 colon
NCI-H226 lung = tested on: NCI-H226 lung
SR leukemia = tested on: SR leukemia
HS 578T breast = tested on: HS 578T breast
OVCAR-5 ovarian = tested on: OVCAR-5 ovarian
ACHN renal = tested on: ACHN renal
A549 NSCLC = tested on: A549 NSCLC
T-47D breast = tested on: T-47D breast

| SMILES | TGI (MDA-MB-231 breast) | TGI (COLO 205 colon) | TGI (HCT-116 colon) | TGI (NCI-H226 lung) | TGI (SR leukemia) | TGI (HS 578T breast) | TGI (OVCAR-5 ovarian) | TGI (ACHN renal) | TGI (A549 NSCLC) | TGI (T-47D breast) | GI50 (NCI-H226 lung) | GI50 (SR leukemia) | GI50 (HS 578T breast) | GI50 (ACHN renal) | GI50 (A549 NSCLC) |
| --- | --- | --- | --- | --- | --- | --- | --- | --- | --- | --- | --- | --- | --- | --- | --- |
| Fc1cccc2nc(-c3ccccc3)cc(OCc3ccccc3)c12 | > 100 µM | > 100 µM | > 100 µM | > 100 µM | > 100 µM | > 100 µM | > 100 µM | > 100 µM | > 100 µM | > 100 µM | – | – | – | – | – |
| OC1CN=C2c3ccccc3C(O)(c3ccc(Cl)cc3)N2C1 (stereo not given) | > 100 µM | 37.8 µM | > 100 µM | > 100 µM | > 100 µM | > 100 µM | > 100 µM | > 100 µM | > 100 µM | > 100 µM | – | – | – | – | – |
| c1ccc(N=NNNc2ccc(-c3nc4ccccc4[nH]3)cc2)cc1 | > 100 µM | > 100 µM | > 100 µM | > 100 µM | > 100 µM | 89.1 µM | > 100 µM | > 100 µM | > 100 µM | 39.1 µM | – | – | – | – | – |
| CC1CC[C@]2(C(=O)O)CCC3(C)C(=C2[C@H]1C)C=CC1[C@@]2(C)CC[C@H](O)C(C)(C)C2CC[C@]13C (stereo not given in full) | 70 µM | > 100 µM | 64.1 µM | > 100 µM | 66.1 µM | > 100 µM | > 100 µM | 48.2 µM | 62.6 µM | 58.9 µM | – | – | – | – | – |
| S=C1CC(c2ccc(Cl)cc2)Sc2ccccc2N1 (stereo not given) | > 100 µM | > 100 µM | > 100 µM | > 100 µM | > 100 µM | 40 µM | > 100 µM | > 100 µM | > 100 µM | > 100 µM | – | – | – | – | – |
| COc1cc(C2c3cc4c(cc3OC(N3CCOCC3)C2C)OCO4)cc(OC)c1O (stereo not given) | > 84.2 µM | 41.9 µM | 11.4 µM | > 66.3 µM | > 35.1 µM | 25.6 µM | > 100 µM | > 74.9 µM | > 59.9 µM | > 100 µM | – | – | – | – | – |
| COc1ccc(N=C/C=C/Nc2ccc(OC)cc2)cc1 | 6.02 µM | 16.3 µM | 11.8 µM | 32.6 µM | 11.2 µM | 38.8 µM | 29.6 µM | 29 µM | 25.2 µM | 35.3 µM | – | – | – | – | – |
| COc1cccc(C2c3cc4c(cc3OC(N3CCOCC3)C2C)OCO4)c1O (stereo not given) | 47.5 µM | 22.7 µM | 16.6 µM | 20.9 µM | 30.2 µM | 6.39 µM | 60 µM | 72 µM | 66.5 µM | 36.4 µM | – | – | – | – | – |
| CC(=O)O[C@H]1/C(=C/c2ccc(N(C)C)cc2)C[C@H]2[C@@H]3CC=C4C[C@@H](N5CCCC5)CC[C@]4(C)[C@H]3CC[C@]12C | > 100 µM | > 100 µM | > 100 µM | > 100 µM | > 100 µM | > 100 µM | > 100 µM | > 100 µM | > 100 µM | > 100 µM | – | – | – | – | – |
| NC1CCC(c2cc3ccccc3s2)(N2CCCCC2)CC1 (stereo not given) | 12.9 µM | 3.19 µM | 3.05 µM | 43.7 µM | 3.38 µM | 20.5 µM | 6.23 µM | 12.5 µM | 8.46 µM | 5.51 µM | – | – | – | – | – |
| CN(C)CCOc1ccc(-c2c(Oc3ccc(Cl)cc3)c(=O)oc3ccccc23)cc1 | 22.4 µM | > 39 µM | > 32.9 µM | > 53.9 µM | > 30.6 µM | 24.8 µM | 35.7 µM | > 48.5 µM | > 32.5 µM | > 100 µM | – | – | – | – | – |
| COc1cc2[nH]c(-c3ccccc3)cc(=O)c2cc1OC | > 87.3 µM | > 33.3 µM | > 49.7 µM | 53.6 µM | > 48.3 µM | > 100 µM | > 100 µM | > 100 µM | > 69.8 µM | > 100 µM | – | – | – | – | – |
| CC1(C)N=C(N)N=C(N)N1c1cccc(CSc2ccccc2)c1 | > 100 µM | 29.1 µM | > 100 µM | > 100 µM | 14.2 µM | 68 µM | > 100 µM | > 100 µM | > 100 µM | > 100 µM | – | – | – | – | – |
| Nc1cc(CO)cc(Nc2c3ccccc3nc3occc23)c1 | > 100 µM | 85.7 µM | 73.7 µM | > 100 µM | 27.3 µM | 83.8 µM | > 100 µM | > 100 µM | > 100 µM | 80.3 µM | – | – | – | – | – |
| Cn1c2ccccc2n2c3nc4ccccc4nc3c(C#N)c12 | > 100 µM | > 100 µM | > 100 µM | > 100 µM | > 100 µM | > 100 µM | > 100 µM | > 100 µM | > 100 µM | > 100 µM | – | – | – | – | – |
| CC(=O)Nc1ccc(Nc2nc(=O)[nH]c(=O)[nH]2)cc1 | > 100 µM | > 100 µM | > 100 µM | > 100 µM | > 100 µM | > 100 µM | > 100 µM | > 100 µM | > 100 µM | > 100 µM | – | – | – | – | – |

| SMILES | TGI (MDA-MB-231 breast) | TGI (COLO 205 colon) | TGI (HCT-116 colon) | TGI (NCI-H226 lung) | TGI (SR leukemia) | TGI (HS 578T breast) | TGI (OVCAR-5 ovarian) | TGI (ACHN renal) | TGI (A549 NSCLC) | TGI (T-47D breast) | GI50 (NCI-H226 lung) | GI50 (SR leukemia) | GI50 (HS 578T breast) | GI50 (ACHN renal) | GI50 (A549 NSCLC) |
| --- | --- | --- | --- | --- | --- | --- | --- | --- | --- | --- | --- | --- | --- | --- | --- |
| Cc1nnc2c3c(-c4ccccc4)c(-c4ccccc4)oc3nc(N(C)C)n12 | > 100 µM | > 100 µM | > 100 µM | > 100 µM | 67.2 µM | > 100 µM | > 100 µM | > 100 µM | > 100 µM | > 100 µM | – | – | – | – | – |
| O=C(CSC1=NCCN1)c1ccccc1 | > 100 µM | > 100 µM | > 100 µM | > 100 µM | > 100 µM | > 100 µM | > 100 µM | > 100 µM | > 100 µM | > 100 µM | – | – | – | – | – |
| COc1ccc(CNc2nc3ccccc3nc2-c2cccs2)cc1 | > 100 µM | > 100 µM | > 100 µM | > 100 µM | > 100 µM | 99.8 µM | > 100 µM | > 100 µM | > 100 µM | > 100 µM | – | – | – | – | – |
| COC(=O)/C=C1/OC(c2ccccc2)=C(Cl)C1=O | 36 µM | 30.1 µM | 26.3 µM | > 84.6 µM | 17.9 µM | 66.8 µM | 35.6 µM | 33 µM | 69.4 µM | > 56.6 µM | – | – | – | – | – |
| Cc1nc2ccccc2n1CCc1nc2ccccc2s1 | > 100 µM | > 100 µM | > 100 µM | 42.9 µM | > 100 µM | > 100 µM | > 100 µM | > 100 µM | > 100 µM | > 100 µM | – | – | – | – | – |
| Cc1cc2ccccc2c[n+]1CC(=O)CC([O-])(C(F)(F)F)C(F)(F)F | > 100 µM | > 100 µM | > 100 µM | > 100 µM | > 100 µM | > 100 µM | > 100 µM | > 100 µM | > 100 µM | > 100 µM | – | – | – | – | – |
| NS(=O)(=O)c1ccc(/C=C/c2cccc(O)c2)cc1 | > 100 µM | 45.9 µM | > 100 µM | 74.3 µM | > 100 µM | > 100 µM | > 100 µM | 99.6 µM | > 100 µM | 87.4 µM | 25.8 µM | 17.8 µM | 61 µM | 25.8 µM | 19.8 µM |
| C=C(Br)CN(C#N)CC(=C)Br | > 100 µM | > 100 µM | > 100 µM | > 100 µM | > 100 µM | > 100 µM | > 100 µM | > 100 µM | > 100 µM | > 100 µM | – | – | – | – | – |
| COC(=O)C(Cc1ccccc1)NC(=O)CNC(=O)CSc1nnc(COc2ccc(Cl)cc2)n1-c1ccccc1 (stereo not given) | 32.7 µM | 31.9 µM | 33 µM | 36.5 µM | > 20.4 µM | 70.4 µM | 33.6 µM | 27.2 µM | 34.5 µM | 51.4 µM | – | – | – | – | – |
| COC(=O)CC1C2CC3C(C2=O)C13 (stereo not given) | > 100 µM | > 100 µM | > 100 µM | > 100 µM | > 100 µM | > 100 µM | > 100 µM | > 100 µM | > 100 µM | > 100 µM | – | – | – | – | – |
| CN(C)c1ccc(C(c2ccc(N(C)C)cc2)c2ccc([N+](=O)[O-])cc2)cc1 | > 100 µM | > 100 µM | > 100 µM | > 100 µM | > 100 µM | > 100 µM | > 100 µM | > 100 µM | > 100 µM | > 100 µM | – | – | – | – | – |
| CN(C)CCCOC(=O)C(O)(Cc1ccccc1)C1CC1 (stereo not given) | > 100 µM | > 100 µM | > 100 µM | > 100 µM | > 100 µM | > 100 µM | > 100 µM | > 100 µM | > 100 µM | > 100 µM | – | – | – | – | – |
| COc1ccc(-c2cn3c(n2)sc2cc(C)ccc23)cc1 | 42.4 µM | 19.6 µM | > 100 µM | 62.2 µM | > 100 µM | 67.5 µM | > 100 µM | > 100 µM | > 100 µM | > 100 µM | – | – | – | – | – |
| CC(NC(=O)c1ccc(OP(=O)(OCC2=CC(=O)c3ccccc3C2=O)N(C)CCCCCl)cc1)c1ccc(OCC2CCCCC2)c(C(N)=O)c1 (stereo not given) | 21.3 µM | 20.6 µM | 27.5 µM | 24.2 µM | 34.3 µM | 21.7 µM | 70.6 µM | 29.2 µM | 5.6 µM | 10.5 µM | – | – | – | – | – |
| COC1CCC(OC2CC(C3(C)CCC4(CC(O)C(C)C(C(C)/C=C(\C)C(=O)C(C)CC(C)C(=O)O)O4)O3)OC3(OC(C4OC(O)(CO)C(C)CC4C)CC3C)C2C)OC1C (stereo not given) | 0.517 µM | 0.175 µM | 1.66 µM | 3.13 µM | < 0.0134 µM | 1.15 µM | 13.1 µM | 4.9 µM | 1.97 µM | 1.22 µM | – | – | – | – | – |
| N#CC(c1ccccc1)c1cccc2ccccc12 (stereo not given) | > 100 µM | > 100 µM | > 100 µM | > 100 µM | 39.4 µM | > 100 µM | > 100 µM | > 100 µM | 65.1 µM | > 100 µM | – | – | – | – | – |
